Key:
Type in all cases: in vivo
[1] = system: Echinochloa oryzacola Vasing.; experiment: Test Example 1: herbicidal activity, application before weed generation in submerged conditions; conditions: Application herbicide amount 320 g/ha; Seventeenth Table
Summary of the method: (§1)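 Alluvial soil in Wagner pots flooded to 4 cm water depth; weed seeds sown and 2.5 leaf stage rice seedlings transplanted. Emulsion diluted in water applied to water surface on sowing day at stated g/ha. Greenhouse 25° C. to 30° C.; effects scored 0–5 by herbicidal ratio after three weeks.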

[2] = system: Monochoria vaginalis; experiment: as above; conditions: Application herbicide amount 320 g/ha; Seventeenth Table
Summary of the method: as §1

[3] = system: Scirpus juncoides; experiment: as above; conditions: Application herbicide amount 320 g/ha; Seventeenth Table
Summary of the method: as §1

[4] = system: transplanted Oryza sativa; experiment: Test Example 1: effect on crop, application before weed generation in submerged conditions; conditions: Application herbicide amount 320 g/ha; Seventeenth Table
Summary of the method: as §1

[5] = system: Echinochloa oryzacola Vasing.; experiment: Test Example 2: herbicidal activity, application during weed generation in submerged conditions; conditions: Eighteenth Table; application herbicide amount 320 g/ha
Summary of the method: (§2)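 Alluvial soil in Wagner pots flooded to 4 cm water depth; seeds sown mixed, grown in greenhouse at 25–30 °C. At one- to two-leaf stage, emulsion diluted with water to the set rate (g/ha) was applied to the water surface. Effect scored 0–5 by herbicidal ratio three weeks later.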

[6] = system: Monochoria vaginalis; experiment: as above; conditions: Eighteenth Table; application herbicide amount 320 g/ha
Summary of the method: as §2

[7] = system: Scirpus juncoides; experiment: as above; conditions: Eighteenth Table; application herbicide amount 320 g/ha
Summary of the method: as §2

CSc1nnc2c(C(=O)Nc3nnnn3C)ccc(C(F)(F)F)n12 [2-013]
A: Echinochloa oryzicola Vasing. (herbicidal effect grade) [1]: 5 (Herbicidal ratio of 90% or more (almost completely withered)) | C: Monochoria vaginalis (herbicidal effect grade) [2]: 5 (Herbicidal ratio of 90% or more (almost completely withered)) | B: Scirpus juncoides (herbicidal effect grade) [3]: 4 (Herbicidal ratio of 70% or more and less than 90%) | a: transplanted Oryza sativa (effect on crop grade) [4]: 3 (Herbicidal ratio of 40% or more and less than 70%) | A (Echinochloa oryzicola Vasing.) herbicidal ratio grade [5]: 5 (Herbicidal ratio of 90% or more (almost completely withered)) | C (Monochoria vaginalis) herbicidal ratio grade [6]: 2 (Herbicidal ratio of 20% or more and less than 40%) | B (Scirpus juncoides) herbicidal ratio grade [7]: 3 (Herbicidal ratio of 40% or more and less than 70%)

COCCOCc1nnc2c(C(=O)Nc3nnnn3C)ccc(C(F)(F)F)n12 [2-014]
A: Echinochloa oryzicola Vasing. (herbicidal effect grade) [1]: 5 (Herbicidal ratio of 90% or more (almost completely withered)) | C: Monochoria vaginalis (herbicidal effect grade) [2]: 5 (Herbicidal ratio of 90% or more (almost completely withered)) | B: Scirpus juncoides (herbicidal effect grade) [3]: 5 (Herbicidal ratio of 90% or more (almost completely withered)) | a: transplanted Oryza sativa (effect on crop grade) [4]: 4 (Herbicidal ratio of 70% or more and less than 90%) | A (Echinochloa oryzicola Vasing.) herbicidal ratio grade [5]: 5 (Herbicidal ratio of 90% or more (almost completely withered)) | C (Monochoria vaginalis) herbicidal ratio grade [6]: 5 (Herbicidal ratio of 90% or more (almost completely withered)) | B (Scirpus juncoides) herbicidal ratio grade [7]: 5 (Herbicidal ratio of 90% or more (almost completely withered))

Cn1nnnc1NC(=O)c1ccc(C(F)(F)F)n2c(COCC(F)(F)F)nnc12 [2-015]
A: Echinochloa oryzicola Vasing. (herbicidal effect grade) [1]: 5 (Herbicidal ratio of 90% or more (almost completely withered)) | C: Monochoria vaginalis (herbicidal effect grade) [2]: 5 (Herbicidal ratio of 90% or more (almost completely withered)) | B: Scirpus juncoides (herbicidal effect grade) [3]: 5 (Herbicidal ratio of 90% or more (almost completely withered)) | a: transplanted Oryza sativa (effect on crop grade) [4]: 1 (Herbicidal ratio of 5% or more and less than 20%) | A (Echinochloa oryzicola Vasing.) herbicidal ratio grade [5]: 4 (Herbicidal ratio of 70% or more and less than 90%) | C (Monochoria vaginalis) herbicidal ratio grade [6]: 4 (Herbicidal ratio of 70% or more and less than 90%) | B (Scirpus juncoides) herbicidal ratio grade [7]: 5 (Herbicidal ratio of 90% or more (almost completely withered))

CCC(C)c1nnc2c(C(=O)Nc3nnnn3C)ccc(C(F)(F)F)n12 (centres unmarked) [2-016]
A: Echinochloa oryzicola Vasing. (herbicidal effect grade) [1]: 5 (Herbicidal ratio of 90% or more (almost completely withered)) | C: Monochoria vaginalis (herbicidal effect grade) [2]: 5 (Herbicidal ratio of 90% or more (almost completely withered)) | B: Scirpus juncoides (herbicidal effect grade) [3]: 5 (Herbicidal ratio of 90% or more (almost completely withered)) | a: transplanted Oryza sativa (effect on crop grade) [4]: 4 (Herbicidal ratio of 70% or more and less than 90%) | A (Echinochloa oryzicola Vasing.) herbicidal ratio grade [5]: 5 (Herbicidal ratio of 90% or more (almost completely withered)) | C (Monochoria vaginalis) herbicidal ratio grade [6]: 5 (Herbicidal ratio of 90% or more (almost completely withered)) | B (Scirpus juncoides) herbicidal ratio grade [7]: 5 (Herbicidal ratio of 90% or more (almost completely withered))

Cc1cc(-c2nnc3c(C(=O)Nc4nnnn4C)ccc(C(F)(F)F)n23)no1 [2-017]
A: Echinochloa oryzicola Vasing. (herbicidal effect grade) [1]: 5 (Herbicidal ratio of 90% or more (almost completely withered)) | C: Monochoria vaginalis (herbicidal effect grade) [2]: 4 (Herbicidal ratio of 70% or more and less than 90%) | B: Scirpus juncoides (herbicidal effect grade) [3]: 3 (Herbicidal ratio of 40% or more and less than 70%) | a: transplanted Oryza sativa (effect on crop grade) [4]: 4 (Herbicidal ratio of 70% or more and less than 90%) | A (Echinochloa oryzicola Vasing.) herbicidal ratio grade [5]: 5 (Herbicidal ratio of 90% or more (almost completely withered)) | C (Monochoria vaginalis) herbicidal ratio grade [6]: 4 (Herbicidal ratio of 70% or more and less than 90%) | B (Scirpus juncoides) herbicidal ratio grade [7]: 4 (Herbicidal ratio of 70% or more and less than 90%)
